US20160039767A1, “PYRAZOLE DERIVATIVES AS PRMT1 INHIBITORS AND USES THEREOF” (EPIZYME, INC., priority 2013, published 2016)
Where two headings read alike, the source gives them in different places.

Assays:
PRMT1 = molecular target: T1, PRMT1 (Homo sapiens, UniProt Q99873); assay: PRMT1 Biochemical Assay (3H-SAM Flashplate, histone H4 peptide substrate); details: Biochemical IC50 (Numerical, μM) PRMT1, single experiment or average of multiple experiments, Table 2a
T1 construct: GST-tagged PRMT1; made in house; host or cells: High Five insect cells (baculovirus, pFastBacI)
T1 sequence (Q99873 with tags, fused parts or gaps): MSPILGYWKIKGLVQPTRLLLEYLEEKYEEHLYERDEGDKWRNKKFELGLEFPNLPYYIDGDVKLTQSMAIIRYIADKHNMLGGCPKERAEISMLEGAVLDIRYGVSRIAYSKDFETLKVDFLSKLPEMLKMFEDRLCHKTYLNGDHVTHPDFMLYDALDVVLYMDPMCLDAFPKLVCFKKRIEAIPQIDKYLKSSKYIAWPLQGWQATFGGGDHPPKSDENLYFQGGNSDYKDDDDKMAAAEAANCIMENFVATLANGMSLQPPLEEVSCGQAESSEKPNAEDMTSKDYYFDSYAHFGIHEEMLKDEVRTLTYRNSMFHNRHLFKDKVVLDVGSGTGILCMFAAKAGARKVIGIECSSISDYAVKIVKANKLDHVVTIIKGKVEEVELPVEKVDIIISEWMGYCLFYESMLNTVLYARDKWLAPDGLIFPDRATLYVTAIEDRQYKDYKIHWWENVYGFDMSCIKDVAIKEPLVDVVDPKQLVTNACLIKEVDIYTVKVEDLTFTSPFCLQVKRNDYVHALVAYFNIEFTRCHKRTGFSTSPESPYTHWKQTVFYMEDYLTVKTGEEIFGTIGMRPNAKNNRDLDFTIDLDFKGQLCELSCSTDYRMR
Excerpt: S-adenosylmethionine (SAM), S-adenosylhomocysteine (SAH), bicine, Tween20, dimethylsulfoxide (DMSO), bovine skin gelatin (BSG), and Tris(2-carboxyethyl)phosphine hydrochloride solution (TCEP) were purchased from Sigma-Aldrich at the highest level of purity possible. ^3H-SAM was purchase from American Radiolabeled Chemicals with a specific activity of 80 Ci/mmol. 384-well streptavidin Flashplates were purchased from PerkinElmer.
Recombinant baculovirus were generated according to Bac-to-Bac kit instructions (Life Technologies). Protein over-expression was accomplished by infecting exponentially growing High Five insect cell culture at 1.5×10^6 cell/ml with 1:100 ratio of virus. Infections were carried out at 27° C. for 48 hours, harvested by centrifugation, and stored at −80° C. for purification.
GST-tagged PRMT1 was eluted with 50 mM Tris, 2 mM glutathione, pH 7.8, dialysed in buffer A and concentrated to 1 mg/mL.
General Procedure for PRMT1 Enzyme Assays on Peptide Substrates.
The assays were all performed in a buffer consisting of 20 mM Bicine (pH=7.6), 1 mM TCEP, 0.005% BSG, and 0.002% Tween 20, prepared on the day of use. […] DMSO (1 ul) was added to Columns 11, 12, 23, 24, rows A-H for the maximum signal control and 1 ul of SAH, a known product and inhibitor of PRMT1, was added to columns 11, 12, 23, 24, rows I-P for the minimum signal control. A cocktail (40 ul) containing the PRMT1 enzyme was added by Multidrop Combi (Thermo-Fisher). The compounds were allowed to incubate with PRMT1 for 30 min at room temperature, then a cocktail (10 ul) containing SAM and peptide was added to initiate the reaction (final volume=51 ul). […] The assays were stopped by the addition of non-radiolabeled SAM (10 ul) to a final concentration of 300 uM, which dilutes the ^3H-SAM to a level where its incorporation into the peptide substrate is no longer detectable. […] The plates were then read in a PerkinElmer TopCount plate reader to measure the quantity of ^3H-labeled peptide bound to the Flashplate surface, measured as disintegrations per minute (dpm) or alternatively, referred to as counts per minute (cpm).
Where dpm=disintegrations per minute, cmpd=signal in assay well, and min and max are the respective minimum and maximum signal controls.
Where top and bottom are the normally allowed to float, but may be fixed at 100 or 0 respectively in a 3-parameter fit. The Hill Coefficient normally allowed to float but may also be fixed at 1 in a 3-parameter fit. Y is the % inhibition and X is the compound concentration.

RKO cells = assay: RKO Methylation Assay (In Cell Western for mono-methyl arginine and DNA content); format: cell-based; details: Homo sapiens
Excerpt: RKO adherent cells were purchased from ATCC (American Type Culture Collection), Manassas, Va., USA. DMEM/Glutamax medium, penicillin-streptomycin, heat inactivated fetal bovine serum, 0.05% trypsin and D-PBS were purchased from Life Technologies, Grand Island, N.Y., USA. Odyssey blocking buffer, 800CW goat anti-rabbit IgG (H+L) antibody, and Licor Odyssey infrared scanner were purchased from Licor Biosciences, Lincoln, Nebr., USA. Mono-methyl arginine antibody was purchased from Cell Signaling Technology, Danvers, Mass., USA. Methanol was purchased from VWR, Franklin, Mass., USA. 10% Tween 20 was purchased from KPL, Inc., Gaithersburg, Md., USA. DRAQ5 was purchased from Biostatus Limited, Leicestershire, UK.
RKO adherent cells were maintained in growth medium (DMEM/Glutamax medium supplemented with 10% v/v heat inactivated fetal bovine serum and 100 units/mL penicillin-streptomycin) and cultured at 37° C. under 5% CO2.
Cell Treatment, in Cell Western (ICW) for Detection of Mono-Methyl Arginine and DNA Content.
Compound (100 nL) from a 96-well source plate was added directly to 384 well cell plate. Plates were incubated at 37° C., 5% CO2 for 72 hours. After three days of incubation, plates were brought to room temperature outside of the incubator for ten minutes and blotted on paper towels to remove cell media. 50 μL of ice cold 100% methanol was added directly to each well and incubated for 30 min at room temperature. After 30 min, plates were transferred to a Biotek EL406 plate washer and washed 2 times with 100 μL per well of wash buffer (1×PBS). Next 60 μL per well of Odyssey blocking buffer (Odyssey Buffer with 0.1% Tween 20 (v/v)) were added to each plate and incubated 1 hour at room temperature. Blocking buffer was removed and 20 μL per well of primary antibody was added (mono-methyl arginine diluted 1:200 in Odyssey buffer with 0.1% Tween 20 (v/v)) and plates were incubated overnight (16 hours) at 4° C. Plates were washed 5 times with 100 µL per well of wash buffer. Next 20 μL per well of secondary antibody was added (1:200 800CW goat anti-rabbit IgG (H+L) antibody, 1:1000 DRAQ5 (Biostatus limited) in Odyssey buffer with 0.1% Tween 20 (v/v)) and incubated for 1 hour at room temperature. The plates were washed 5 times with 100 μL per well wash buffer then 2 times with 100 μL per well of water. Plates were allowed to dry at room temperature then imaged on the Licor Odyssey machine which measures integrated intensity at 700 nm and 800 nm wavelengths. Both 700 and 800 channels were scanned.
First, the ratio for each well was determined by:
Each plate included fourteen control wells of DMSO only treatment (minimum activation) as well as fourteen control wells for maximum activation treated with 20 μM of a reference compound. The average of the ratio values for each control type was calculated and used to determine the percent activation for each test well in the plate. Reference compound was serially diluted three-fold in DMSO for a total of nine test concentrations, beginning at 20 μM. Percent activation was determined and EC30 curves were generated using triplicate wells per concentration of compound.

[1] = RKO cells, 72 hours, mono-methyl arginine, class symbols, Table 3, read-out: In Cell Western data EC30
[2] = RKO cells, 72 hours, mono-methyl arginine, single experiment or average of multiple experiments, Table 3a, read-out: In Cell Western data (Numerical, μM) EC30
[3] = RKO, 72 h, read-out: In Cell Western data (Numerical, μM) EC30
[4] = RKO, 72 h, read-out: In Cell Western data EC30

SMILES | IC50 (PRMT1) [µM] | EC30 (RKO cells; [1]) [µM] | EC30 (RKO cells; [2]) [µM] | EC30 (RKO cells; [3]) [µM] | EC30 (RKO cells; [4]) [µM]
CNCCN(C)Cc1n[nH]cc1-c1cc(OCCOC)cc(C(F)(F)F)c1 [Compound 30] | 0.109 | 3.01 to 12 | 13.1 |  | 
CNCCN(C)Cc1c[nH]nc1-c1ccc(CC(C)C)c(C(F)(F)F)c1 [Compound 34] | 0.00444 |  |  | 0.955 | < 3
CNCCN(C)Cc1c[nH]nc1-c1cc(Cl)c(OCC2CCC2)c(C(F)(F)F)c1 [Compound 35] | 0.00431 |  |  | 0.694 | < 3
CNCCN(C)Cc1c[nH]nc1-c1cc(Oc2ccccc2)cc(C(F)(F)F)c1 [Compound 36] | 0.0123 | < 3 | 2.18 |  | 
CNCCN(C)Cc1c[nH]nc1-c1cc(OCc2ccccc2)cc(C(F)(F)F)c1 [Compound 37] | 0.0185 | 3.01 to 12 | 5 |  | 
CNCCN(C)Cc1c[nH]nc1-c1cc(Oc2ccncc2)cc(C(F)(F)F)c1 [Compound 38] | 0.138 | 3.01 to 12 | 8.58 |  | 
CNCCN(C)Cc1c[nH]nc1-c1cc(Cl)c(OCC2CC2)c(C(F)(F)F)c1 [Compound 41] | 0.00636 |  |  | 2.39 | < 3
CNCCN(C)Cc1c[nH]nc1-c1cc(OCC2CCC2)cc(C(F)(F)F)c1 [Compound 44] | 0.0132 |  |  | 4.52 | 3.01 to 12
CNCCN(C)Cc1c[nH]nc1-c1cc(OCC2CCOCC2)cc(C(F)(F)F)c1 [Compound 46] | 0.0282 |  |  | 2.62 | < 3
CCC(CC)Oc1cc(-c2n[nH]cc2CN(C)CCNC)cc(C(F)(F)F)c1 [Compound 47] | 0.0135 | < 3 | 2.67 |  | 
CNCCN(C)Cc1c[nH]nc1-c1cc(OCCCC(F)(F)F)cc(C(F)(F)F)c1 [Compound 48] | 0.0303 | 3.01 to 12 | 4.2 |  | 
CNCCN(C)Cc1c[nH]nc1-c1cc(OCCCC(C)=O)cc(C(F)(F)F)c1 [Compound 49] | 0.0366 | 3.01 to 12 | 3.36 |  | 
CNCCN(C)Cc1c[nH]nc1-c1cc(OCCc2ccccc2OC)cc(C(F)(F)F)c1 [Compound 50] | 0.0138 | 3.01 to 12 | 4.37 |  | 
CNCCN(C)Cc1c[nH]nc1-c1cc(Oc2cccnc2)cc(C(F)(F)F)c1 [Compound 51] | 0.0513 | 3.01 to 12 | 6.9 |  | 
CNCCN(C)Cc1c[nH]nc1-c1cc(Oc2ccccn2)cc(C(F)(F)F)c1 [Compound 52] | 0.0359 | 3.01 to 12 | 4.44 |  | 
CNCCN(C)Cc1c[nH]nc1-c1cc(C)c(OCC2CCC2)c(C(F)(F)F)c1 [Compound 58] | 0.00706 |  |  | 0.547 | < 3
CNCCN(C)Cc1c[nH]nc1-c1cc(C)c(OC2CCOCC2)c(C(F)(F)F)c1 [Compound 59] | 0.0316 |  |  | 1.37 | < 3
CNCCN(C)Cc1c[nH]nc1-c1cc(OCCOC)c(F)c(C(F)(F)F)c1 [Compound 64] | 0.104 |  |  | 13.2 | > 12
CNCCN(C)Cc1c[nH]nc1-c1cc(C)c(OCC2CCOCC2)c(C(F)(F)F)c1 [Compound 65] | 0.0471 |  |  | 1.45 | < 3
CNCCN(C)Cc1c[nH]nc1-c1cc(C)c(OC2COC2)c(C(F)(F)F)c1 [Compound 66] | 0.00756 |  |  | 0.724 | < 3
